The target of test [1] is T1, Activin receptor type-1 (Homo sapiens) (UniProt Q04771).
T1 sequence (whole entry): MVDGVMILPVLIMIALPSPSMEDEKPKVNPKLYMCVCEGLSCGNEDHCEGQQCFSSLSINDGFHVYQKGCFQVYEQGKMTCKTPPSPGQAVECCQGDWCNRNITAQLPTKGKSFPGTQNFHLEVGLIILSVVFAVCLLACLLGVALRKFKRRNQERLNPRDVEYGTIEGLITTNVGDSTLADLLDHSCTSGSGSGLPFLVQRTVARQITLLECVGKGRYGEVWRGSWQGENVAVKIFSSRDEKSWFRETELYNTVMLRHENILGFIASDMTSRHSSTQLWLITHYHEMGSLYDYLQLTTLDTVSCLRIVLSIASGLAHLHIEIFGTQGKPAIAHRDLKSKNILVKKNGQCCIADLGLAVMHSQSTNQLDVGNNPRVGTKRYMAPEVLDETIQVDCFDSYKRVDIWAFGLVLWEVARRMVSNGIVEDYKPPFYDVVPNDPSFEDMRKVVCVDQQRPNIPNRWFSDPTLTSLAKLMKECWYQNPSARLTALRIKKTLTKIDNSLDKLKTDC
Description: Selectivity interaction (Ambit KINOMEscan and KiNATiv profiling in Jurkat cells) EUB0000090b ACVR1. The conditions noted are these: at 1 µM. The class given is cell-based.

The target of test [2] is Fibroblast growth factor receptor 1 (Homo sapiens, UniProt P11362). The test is described as follows: Selectivity interaction (KinomeScan (DiscoverX)) EUB0000666a FGFR1. The conditions noted are these: at 10 µM.
Sequence of Fibroblast growth factor receptor 1 (P11362 22-822 limits assumed): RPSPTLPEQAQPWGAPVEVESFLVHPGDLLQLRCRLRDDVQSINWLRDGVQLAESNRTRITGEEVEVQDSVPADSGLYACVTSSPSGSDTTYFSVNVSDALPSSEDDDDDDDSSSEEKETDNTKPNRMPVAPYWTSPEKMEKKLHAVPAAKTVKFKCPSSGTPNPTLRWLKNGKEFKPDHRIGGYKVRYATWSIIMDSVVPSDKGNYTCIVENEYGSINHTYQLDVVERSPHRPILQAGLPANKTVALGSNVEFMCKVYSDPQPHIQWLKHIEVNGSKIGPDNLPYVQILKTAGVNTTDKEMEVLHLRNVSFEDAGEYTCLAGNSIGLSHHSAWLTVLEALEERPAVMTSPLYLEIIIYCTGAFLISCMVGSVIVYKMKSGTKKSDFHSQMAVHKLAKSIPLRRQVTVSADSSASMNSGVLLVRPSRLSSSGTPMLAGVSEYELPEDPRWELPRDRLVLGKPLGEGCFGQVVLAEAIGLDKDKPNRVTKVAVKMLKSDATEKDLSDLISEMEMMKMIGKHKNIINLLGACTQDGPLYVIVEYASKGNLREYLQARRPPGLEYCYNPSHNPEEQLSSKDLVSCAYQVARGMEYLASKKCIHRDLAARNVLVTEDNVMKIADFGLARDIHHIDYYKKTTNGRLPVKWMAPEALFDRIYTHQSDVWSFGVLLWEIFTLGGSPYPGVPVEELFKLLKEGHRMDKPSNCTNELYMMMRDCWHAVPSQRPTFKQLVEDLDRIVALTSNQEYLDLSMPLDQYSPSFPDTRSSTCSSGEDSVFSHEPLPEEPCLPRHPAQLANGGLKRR
In test [3] the target is T2, Serine/threonine-protein kinase BRSK2 (Homo sapiens) (UniProt Q8IWQ3).
T2 sequence (whole entry): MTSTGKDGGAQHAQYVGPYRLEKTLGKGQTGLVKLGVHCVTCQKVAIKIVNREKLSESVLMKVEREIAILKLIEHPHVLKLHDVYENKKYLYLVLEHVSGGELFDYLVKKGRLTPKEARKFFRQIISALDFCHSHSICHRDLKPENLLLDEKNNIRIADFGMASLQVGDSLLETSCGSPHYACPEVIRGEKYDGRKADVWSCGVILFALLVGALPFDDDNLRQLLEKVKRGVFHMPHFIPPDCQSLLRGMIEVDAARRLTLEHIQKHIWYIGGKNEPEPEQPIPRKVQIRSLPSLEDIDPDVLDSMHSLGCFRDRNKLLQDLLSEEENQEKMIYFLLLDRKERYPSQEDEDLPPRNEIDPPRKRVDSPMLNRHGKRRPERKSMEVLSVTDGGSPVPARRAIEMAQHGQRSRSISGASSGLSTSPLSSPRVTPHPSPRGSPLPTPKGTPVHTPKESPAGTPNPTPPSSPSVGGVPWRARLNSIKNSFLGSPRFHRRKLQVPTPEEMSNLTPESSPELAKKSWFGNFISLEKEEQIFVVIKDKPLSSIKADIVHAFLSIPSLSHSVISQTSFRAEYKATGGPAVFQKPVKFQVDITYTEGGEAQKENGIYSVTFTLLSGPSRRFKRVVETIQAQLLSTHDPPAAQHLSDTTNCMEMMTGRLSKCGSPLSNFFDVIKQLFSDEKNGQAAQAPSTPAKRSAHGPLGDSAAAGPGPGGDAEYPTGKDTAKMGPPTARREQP
The test is described as follows: Selectivity interaction (KinomeScan (DiscoverX)) EUB0001619a BRSK2. The conditions noted are these: at 1 µM.

For test [4], the target named is G protein-coupled receptor kinase 5 (Homo sapiens, UniProt P34947). The test is described as follows: Selectivity interaction (Kinase panel (Invitrogen)) EUB0000639a GRK5. The settings on record: at 200 nM.
Sequence of G protein-coupled receptor kinase 5 (P34947 whole entry, looked up): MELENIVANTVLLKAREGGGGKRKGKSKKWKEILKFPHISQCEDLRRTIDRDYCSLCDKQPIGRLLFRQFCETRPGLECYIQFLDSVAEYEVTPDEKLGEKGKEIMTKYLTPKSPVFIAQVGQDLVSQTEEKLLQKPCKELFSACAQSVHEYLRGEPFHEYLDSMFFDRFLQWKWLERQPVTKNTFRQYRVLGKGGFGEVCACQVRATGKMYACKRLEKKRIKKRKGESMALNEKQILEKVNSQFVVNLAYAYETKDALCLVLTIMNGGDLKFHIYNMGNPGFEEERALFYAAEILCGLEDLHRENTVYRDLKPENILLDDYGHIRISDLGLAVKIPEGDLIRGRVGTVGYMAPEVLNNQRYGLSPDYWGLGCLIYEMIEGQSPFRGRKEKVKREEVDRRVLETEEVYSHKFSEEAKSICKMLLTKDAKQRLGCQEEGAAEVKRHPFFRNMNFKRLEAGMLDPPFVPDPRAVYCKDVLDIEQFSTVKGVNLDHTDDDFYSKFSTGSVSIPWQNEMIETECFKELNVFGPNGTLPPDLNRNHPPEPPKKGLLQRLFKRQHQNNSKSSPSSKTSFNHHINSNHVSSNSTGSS
In test [5] the target is Calcium/calmodulin-dependent protein kinase type 1D (Homo sapiens) (UniProt Q8IU85). Description: Selectivity interaction (ActivX KiNativ screen (kinase selectivity in THP-1 cell lysates)) EUB0000639a CAMK1D. The class given is subcellular. The conditions noted are these: lysate, at 5 µM.
Sequence of Calcium/calmodulin-dependent protein kinase type 1D (Homo sapiens) (Q8IU85 whole entry, looked up): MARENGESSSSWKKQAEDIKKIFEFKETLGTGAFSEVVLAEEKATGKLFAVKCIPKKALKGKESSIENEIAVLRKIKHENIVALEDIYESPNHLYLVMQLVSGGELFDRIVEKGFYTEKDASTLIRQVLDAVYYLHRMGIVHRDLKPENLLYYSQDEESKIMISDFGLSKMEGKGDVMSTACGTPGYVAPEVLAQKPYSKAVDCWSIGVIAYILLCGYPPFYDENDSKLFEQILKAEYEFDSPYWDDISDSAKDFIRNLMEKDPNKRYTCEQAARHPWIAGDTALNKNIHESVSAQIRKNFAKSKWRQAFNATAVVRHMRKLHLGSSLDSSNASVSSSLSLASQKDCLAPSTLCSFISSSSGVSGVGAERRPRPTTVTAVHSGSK
For test [6], the target named is Serine/threonine-protein kinase PAK 1 (Homo sapiens) (UniProt Q13153). The conditions noted are these: at 10 µM.
Sequence of Serine/threonine-protein kinase PAK 1 (Homo sapiens) (Q13153 whole entry): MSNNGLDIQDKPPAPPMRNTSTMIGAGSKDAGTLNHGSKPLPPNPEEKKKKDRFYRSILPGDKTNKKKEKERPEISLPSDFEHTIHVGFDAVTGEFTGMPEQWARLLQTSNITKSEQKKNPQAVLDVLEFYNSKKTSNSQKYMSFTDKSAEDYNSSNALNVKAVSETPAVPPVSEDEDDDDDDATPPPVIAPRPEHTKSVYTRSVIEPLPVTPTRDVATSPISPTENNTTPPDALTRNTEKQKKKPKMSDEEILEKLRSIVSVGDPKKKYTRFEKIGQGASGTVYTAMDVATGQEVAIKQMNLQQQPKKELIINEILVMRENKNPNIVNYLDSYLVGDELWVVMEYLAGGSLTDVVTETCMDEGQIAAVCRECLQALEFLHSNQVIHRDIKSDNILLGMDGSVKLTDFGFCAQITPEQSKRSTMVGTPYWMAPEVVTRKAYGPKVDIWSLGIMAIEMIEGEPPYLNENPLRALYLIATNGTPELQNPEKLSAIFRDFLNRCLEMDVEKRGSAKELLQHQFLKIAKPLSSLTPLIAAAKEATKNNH
The target of test [7] is Mitogen-activated protein kinase kinase kinase 9 (Homo sapiens) (UniProt P80192). Description: Selectivity interaction (KinomeScan (DiscoverX)) EUB0000618a MAP3K9. The conditions noted are these: at 10 µM.
Sequence of Mitogen-activated protein kinase kinase kinase 9 (Homo sapiens) (P80192 whole entry, looked up): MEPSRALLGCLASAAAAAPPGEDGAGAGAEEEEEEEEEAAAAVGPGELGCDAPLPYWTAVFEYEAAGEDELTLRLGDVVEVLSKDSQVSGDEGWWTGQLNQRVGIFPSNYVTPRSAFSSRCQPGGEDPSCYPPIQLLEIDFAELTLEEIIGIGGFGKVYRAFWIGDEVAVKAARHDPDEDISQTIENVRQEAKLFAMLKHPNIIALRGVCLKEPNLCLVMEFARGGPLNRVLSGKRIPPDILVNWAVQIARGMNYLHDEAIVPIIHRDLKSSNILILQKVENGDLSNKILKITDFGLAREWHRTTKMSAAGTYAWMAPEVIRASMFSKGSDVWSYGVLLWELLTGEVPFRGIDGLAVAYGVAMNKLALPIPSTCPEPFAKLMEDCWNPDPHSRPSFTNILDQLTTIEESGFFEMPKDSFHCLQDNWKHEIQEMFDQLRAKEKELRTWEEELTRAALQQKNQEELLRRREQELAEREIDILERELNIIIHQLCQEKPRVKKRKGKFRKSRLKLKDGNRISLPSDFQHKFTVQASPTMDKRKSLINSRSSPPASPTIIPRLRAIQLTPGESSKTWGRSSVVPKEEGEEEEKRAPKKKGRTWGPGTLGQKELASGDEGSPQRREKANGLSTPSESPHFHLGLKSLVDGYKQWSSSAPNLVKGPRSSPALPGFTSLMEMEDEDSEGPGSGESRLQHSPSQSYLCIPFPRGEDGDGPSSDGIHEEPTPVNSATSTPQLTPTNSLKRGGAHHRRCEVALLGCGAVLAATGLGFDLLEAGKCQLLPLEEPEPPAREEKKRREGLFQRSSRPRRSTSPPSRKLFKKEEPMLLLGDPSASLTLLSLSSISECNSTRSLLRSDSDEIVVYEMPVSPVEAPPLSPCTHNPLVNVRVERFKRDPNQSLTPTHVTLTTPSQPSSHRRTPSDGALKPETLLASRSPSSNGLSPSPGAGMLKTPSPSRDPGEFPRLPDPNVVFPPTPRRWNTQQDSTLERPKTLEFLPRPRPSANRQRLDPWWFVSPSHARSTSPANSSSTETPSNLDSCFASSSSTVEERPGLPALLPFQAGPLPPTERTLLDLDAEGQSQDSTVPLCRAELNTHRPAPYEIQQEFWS
In test [8] the target is Tyrosine-protein kinase Lyn (Homo sapiens, UniProt P07948). Description: Selectivity interaction (Upstate Kinase Profiler service (Millipore)) EUB0000056c LYN. The conditions noted are these: at 1 µM.
Sequence of Tyrosine-protein kinase Lyn (P07948 2-512 limits assumed): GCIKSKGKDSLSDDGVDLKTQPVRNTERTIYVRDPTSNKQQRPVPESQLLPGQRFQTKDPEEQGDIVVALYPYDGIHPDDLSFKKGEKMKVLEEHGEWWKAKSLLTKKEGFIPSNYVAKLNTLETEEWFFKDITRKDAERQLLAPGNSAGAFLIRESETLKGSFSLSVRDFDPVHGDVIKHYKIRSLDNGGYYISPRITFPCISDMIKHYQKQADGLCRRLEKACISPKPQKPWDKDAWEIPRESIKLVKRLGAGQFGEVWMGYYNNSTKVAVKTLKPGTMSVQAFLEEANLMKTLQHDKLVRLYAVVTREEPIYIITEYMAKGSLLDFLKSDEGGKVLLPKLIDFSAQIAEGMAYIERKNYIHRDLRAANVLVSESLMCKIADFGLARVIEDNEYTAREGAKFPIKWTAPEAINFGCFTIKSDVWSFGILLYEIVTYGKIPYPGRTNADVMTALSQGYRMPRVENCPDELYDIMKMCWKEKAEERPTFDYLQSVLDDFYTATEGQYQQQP
For test [9], the system named is T3, Receptor-type tyrosine-protein kinase FLT3 (Homo sapiens), P36888 [N841I].
T3 sequence (whole entry): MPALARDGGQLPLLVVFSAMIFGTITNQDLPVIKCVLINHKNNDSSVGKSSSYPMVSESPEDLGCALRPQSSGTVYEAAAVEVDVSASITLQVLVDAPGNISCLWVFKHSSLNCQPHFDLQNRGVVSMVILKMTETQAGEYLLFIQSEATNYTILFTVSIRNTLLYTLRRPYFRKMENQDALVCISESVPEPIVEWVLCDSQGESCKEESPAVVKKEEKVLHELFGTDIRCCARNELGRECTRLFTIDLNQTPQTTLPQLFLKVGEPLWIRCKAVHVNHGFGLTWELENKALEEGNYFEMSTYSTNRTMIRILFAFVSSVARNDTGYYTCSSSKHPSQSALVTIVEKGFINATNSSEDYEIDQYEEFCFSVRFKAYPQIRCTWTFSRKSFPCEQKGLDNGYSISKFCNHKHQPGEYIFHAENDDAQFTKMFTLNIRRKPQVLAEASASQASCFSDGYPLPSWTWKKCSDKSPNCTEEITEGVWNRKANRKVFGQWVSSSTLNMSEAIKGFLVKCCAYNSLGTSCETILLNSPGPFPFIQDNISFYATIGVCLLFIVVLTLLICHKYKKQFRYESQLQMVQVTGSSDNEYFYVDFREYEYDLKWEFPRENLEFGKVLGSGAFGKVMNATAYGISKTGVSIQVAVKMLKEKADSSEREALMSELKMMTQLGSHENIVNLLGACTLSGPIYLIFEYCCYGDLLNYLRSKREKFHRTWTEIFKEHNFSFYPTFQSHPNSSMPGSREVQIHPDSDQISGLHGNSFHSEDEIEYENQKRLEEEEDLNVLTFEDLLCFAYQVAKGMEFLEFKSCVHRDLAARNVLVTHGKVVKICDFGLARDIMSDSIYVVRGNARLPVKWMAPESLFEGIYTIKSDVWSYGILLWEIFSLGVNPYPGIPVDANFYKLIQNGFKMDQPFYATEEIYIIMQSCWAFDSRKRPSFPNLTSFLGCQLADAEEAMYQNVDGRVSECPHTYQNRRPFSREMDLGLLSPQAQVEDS
Description: Selectivity interaction (KinomeScan (DiscoverX)) EUB0000595a FLT3. The settings on record: at 10 µM.

As for `CN(C)C/C=C/C(=O)Nc1ccc(C(=O)N2CCCC(Nc3ncc(Cl)c(-c4c[nH]c5ccccc45)n3)C2)cc1` (centres undefined), the % of control in [1] worked out at 97%.

In turn, `O=C(NOC[C@H](O)CO)c1ccc(F)c(F)c1Nc1ccc(I)cc1F` showed a % of control in test [2] of 100%.

On to `N#Cc1cccc(-c2c[nH]c3ncnc(N4CCOCC4)c23)c1`, for which the % of control in test [3] was 85%.

Turning to `CC[C@@H]1[C@H](F)C(=O)N[C@@H]1COc1nccc2cc(C(N)=O)c(OC)cc12` [ZIMLOVISERTIB], the % of inhibition came to 0.578% in test [4] and 16.3% in test [5].

Take `CCN(CC)CCCCNc1ncc2cc(-c3cc(OC)cc(OC)c3)c(NC(=O)NC(C)(C)C)nc2n1`: in test [6], the % of control was found to be 100%.

`O[C@H]1CC[C@H](Nc2ncc3nc(Nc4c(F)cc(F)cc4F)n([C@H]4CCOC4)c3n2)CC1` came in with a % of control in [7] of 100%.

Turning to `Cc1ccc(-c2ccc3c(ccc4sc5c(c43)NC[C@@H](C)NC5=O)n2)cn1`, the % of inhibition in [8] worked out at 8%.

As to `COCC(=O)NC/C=C/c1ccc2ncnc(Nc3ccc(Oc4ccc(C)nc4)c(C)c3)c2c1` [CP-724714], the % of control in [9] was 79%.

These data come from ChEMBL document CHEMBL5465560, “Selectivity Literature for EUbOPEN Chemogenomic Library” (2024).
